In patent US11814391B2, “Macrocyclic compounds for the treatment of medical disorders” (Achillion Pharmaceuticals, Inc., priority 2018, dated 2023) one finds IC50 data, which are given here for 18 compounds.

The target in this assay is Human Factor D (Homo sapiens (Human), UniProt P00746). Put plainly: Human Factor D assay. The class given is biochemical. The settings on record: Human Factor D 80 nM, substrate Z-L-Lys-SBzl, A405; read-out: IC50 (Stars). As to the method: The assay of Example 3 was used to determine the IC50's of the compounds. Other standard factor D inhibition assays are also available.
Chain of Human Factor D (P00746 26-253): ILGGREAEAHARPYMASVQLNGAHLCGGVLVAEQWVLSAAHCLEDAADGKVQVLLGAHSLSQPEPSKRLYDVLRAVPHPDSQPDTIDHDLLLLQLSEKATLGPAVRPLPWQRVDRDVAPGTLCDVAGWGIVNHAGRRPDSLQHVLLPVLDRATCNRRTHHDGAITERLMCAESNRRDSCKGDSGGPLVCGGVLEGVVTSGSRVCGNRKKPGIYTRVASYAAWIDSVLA
Human Factor D (purified from human serum, Complement Technology, Inc.) at 80 nM final concentration is incubated with test compound at various concentrations for 5 min at room temperature in 50 mM Tris, 1M NaCl, pH 7.5. A synthetic substrate Z-L-Lys-SBzI and DTNB (Ellman's reagent) are added to final concentrations of 100 μM each. Absorbance at 405 nm (A405) is recorded at 30 second intervals for 30 min using a microplate spectrophotometer. IC50 values are calculated by nonlinear regression of complement Factor D reaction rates as a function of test compound concentration.
One may read the IC50 as the concentration that inhibits the measured activity by half. As for `CC(=O)c1nn2c3c(cc(-c4cnc(C)nc4)cc13)CCCCCC(C)(C)CNC[C@@]13C[C@@H](C(=O)NC4CC(C)(C)C4)N(C(=O)C2)[C@@H]1C3` [Compound 61, (41R,43S,45R)-13-acetyl-N-(3,3-dimethylcyclobutyl)-8,8-dimethyl-15-(2-methylpyrimidin-5-yl)-3-oxo-11H-42,6-diaza-1(1,7)-indazola-4(2,5)-bicyclo[3.1.0]hexanacyclotridecaphane-43-carboxamide], the IC50 was under 1000 nM.

For the compound `CC(=O)c1nn2c3c(cc(-c4cnc(C)nc4)cc13)CCCCCC(C)(C)CNC[C@@]13C[C@@H](C(=O)Nc4nc(C(F)(F)F)ccc4C)N(C(=O)C2)[C@@H]1C3` [Compound 59, (41R,43S,45R)-13-acetyl-8,8-dimethyl-N-(3-methyl-6-(trifluoromethyl)pyridin-2-yl)-15-(2-methylpyrimidin-5-yl)-3-oxo-11H-42,6-diaza-1(1,7)-indazola-4(2,5)-bicyclo[3.1.0]hexanacyclotridecaphane-43-carboxamide], the IC50 is under 1000 nM.

Regarding `CC(=O)c1nn2c3c(cc(-c4cnc(C)nc4)cc13)CCCCCCC(=O)N(C)C[C@@]13C[C@@H](C(=O)Nc4cc(F)cc(Br)n4)N(C(=O)C2)[C@@H]1C3` [Compound 14, (4^1R,4^3S,4^5R)-1^3-acetyl-N-(6-bromo-4-fluoropyridin-2-yl)-6-methyl-1^5-(2-methylpyrimidin-5-yl)-3,7-dioxo-1^1H-4^2,6-diaza-1(1,7)-indazola-4(2,5)-bicyclo[3.1.0]hexanacyclotridecaphane-4^3-carboxamide], the IC50 is under 1000 nM.

Regarding `CC(=O)c1nn2c3c(cc(-c4cnc(C)nc4)cc13)CCCCCCCCc1ccc(Br)nc1NC(=O)[C@H](C)N(C)C(=O)C2` [Compound 51, (S)-2-acetyl-16-bromo-20,21-dimethyl-4-(2-methylpyrimidin-5-yl)-6,7,8,9,10,11,12,13,20,21 - decahydropyrido[2′,3′:8,9][1,4,7]triazacyclononadecino [18,19,1-hi]indazole-19,22(18H,23H)-dione], the concentration for half-maximal inhibition (IC50) was over 10000 nM.

Take `CC(=O)c1nn2c3c(cc(-c4cnc(C)nc4)cc13)CCCC[C@H](C)CC(=O)NC[C@@]13C[C@@H](C(=O)Nc4nc(C(F)(F)F)ccc4C)N(C(=O)C2)[C@@H]1C3` [Compound 31, (4^1R,4^3S,4^5R,9S)-1^3-acetyl-9-methyl-N-(3-methyl-6-(trifluoromethyl)pyridin-2-yl)-1^5-(2-methylpyrimidin-5-yl)-3,7-dioxo-1^1H-4^2,6-diaza-1(1,7)-indazola-4(2,5)-bicyclo[3.1.0]hexanacyclotridecaphane-4^3-carboxamide]: the concentration for half-maximal inhibition (IC50) was under 1000 nM.

Regarding `CC(=O)c1nn2c3c(cc(-c4cnc(C)nc4)cc13)CCCCCCC(=O)NC[C@@]13C[C@@H](C(=O)Nc4nc(OC(F)(F)F)ccc4C)N(C(=O)C2)[C@@H]1C3` [Compound 1, (4^1R,4^3S,4^5R)-1^3-acetyl-N-(3-methyl-6-(trifluoromethoxy)pyridin-2-yl)-1^5-(2-methylpyrimidin-5-yl)-3,7-dioxo-1^1H-4^2,6-diaza-1(1,7)-indazola-4(2,5)-bicyclo[3.1.0]hexanacyclotridecaphane-4^3-carboxamide], the IC50 is under 1000 nM.

With `CC(=O)c1nn2c3c(cc(-c4cnc(C)nc4)cc13)CCCCCCC(=O)NC[C@@]13C[C@@H](C(=O)Nc4nc(Br)ccc4CN4CC(F)C4)N(C(=O)C2)[C@@H]1C3` [Compound 2, (4^1R,4^3S,4^5R)-1^3-acetyl-N-(6-bromo-3-((3-fluoroazetidin-1-yl)methyl)pyridin-2-yl)-1^5-(2-methylpyrimidin-5-yl)-3,7-dioxo-1^1H-4^2,6-diaza-1(1,7)-indazola-4(2,5)-bicyclo[3.1.0]hexanacyclotridecaphane-4^3-carboxamide], the half-maximal inhibitory concentration (IC50) is under 1000 nM.

On to `CC(=O)c1nn2c3c(cc(NCC4CCCCC4)cc13)CCCCCCC(=O)NCC13CC(C(=O)Nc4nc(C(F)(F)F)ccc4C)N(C(=O)C2)C1C3` [Compound 52, (41R,43S,45R)-13-acetyl-15-((cyclohexylmethyl)amino)-N-(3-methyl-6-(trifluoromethyl)pyridin-2-yl)-3,7-dioxo-11H-42,6-diaza-1(1,7)-indazola-4(2,5)-bicyclo[3.1.0]hexanacyclotridecaphane-43-carboxamide], for which the concentration for half-maximal inhibition (IC50) is under 1000 nM.

Regarding `CC(=O)c1nn2c3c(nc(C)cc13)C/C=C/CCCCCC(=O)NCc1ccc(Br)nc1NC(=O)[C@@H]1C[C@@]3(C)C[C@H]3N1C(=O)C2` [Compound 45, (20aS,21aR,22aR,E)-26-acetyl-17-bromo-2,21a-dimethyl-8,9,10,11,13,14,20a,21,21a,22,22a,24-dodecahydro-3,13,18,19,22b,24a,25-heptaazabenzo[15,16]cyclopropa[3′,4′]cyclopenta[1′,2′:19, 20]cyclodocosa[1,2,3-cd]indene-12,20,23(4H,7H,19H)-trione], the IC50 was under 1000 nM.

In the case of `CC(=O)c1nn2c3c(cc(-c4cnc(C)nc4)cc13)CCCCCCCCCc1ccc(Br)nc1NC(=O)[C@H](C)N(C)C(=O)C2` [Compound 38, (S)-13-acetyl-3-bromo-7,8-dimethyl-15-(2-methylpyrimidin-5-yl)-5,7,8,17,18,19,20,21,22,23,24,25-dodecahydro-6H-pyrido[2′,3′:8,9][1,4,7]triazacycloicosino[19,20,1-hi]indazole-6,9(10H)-dione], the IC50 was over 10000 nM.

For the compound `CC(=O)c1nn2c3c(cc(C(C)C)cc13)CCCCCCC(=O)NC[C@@]13C[C@@H](C(=O)Nc4nc(C(F)(F)F)ccc4C)N(C(=O)C2)[C@@H]1C3` [Compound 21, (4^1R,4^3S,4^5R)-1^3-Acetyl-1^5-isopropyl-N-(3-methyl-6-(trifluoromethyl)pyridin-2-yl)-3,7-dioxo-1^1H-4^2,6-diaza-1(1,7)-indazola-4(2,5)-bicyclo[3.1.0]hexanacyclotridecaphane-4^3-carboxamide], the IC50 was under 1000 nM.

As to `CC(=O)c1nn2c3c(cc(-c4cnc(C)nc4)cc13)CCCCCCCNC[C@@]13C[C@@H](C(=O)Nc4nc(C(F)(F)F)ccc4C)N(C(=O)C2)[C@@H]1C3` [Compound 32, (4^1R,4^3S,4^5R)-1^3-acetyl-N-(3-methyl-6-(trifluoromethyl)pyridin-2-yl)-1^5-(2-methylpyrimidin-5-yl)-3-oxo-1^1H-4^2,6-diaza-1(1,7)-indazola-4(2,5)-bicyclo[3.1.0]hexanacyclotridecaphane-4^3-carboxamide], the IC50 is under 1000 nM.

`CC(=O)c1nn(CC(=O)N(C)[C@H]2CCCCCCCCCc3ccc(Br)nc3NC2=O)c2ccc(-c3cnc(C)nc3)cc12` [Compound 12, (S)-2-(3-acetyl-5-(2-methylpyrimidin-5-yl)-1H-indazol-1-yl)-N-(2-bromo-15-oxo-5,6,7,8,9,10,11,12,13,14, 15,16-dodecahydropyrido[2,3-b][1]azacyclotetradecin-14-yl)-N-methylacetamide]: the half-inhibitory concentration (IC50) lay within 1000 to 10000 nM.

As to `CC(=O)c1nn2c3c(cc(-c4cnc(C)nc4)cc13)CCCCCCC(=O)NC[C@@]13C[C@@H](C(=O)NC(C)[C@H]4CC4(Cl)Cl)N(C(=O)C2)[C@@H]1C3` (stereo partly drawn) [Compound 29, (4^1R,4^3S,4^5R)-1^3-acetyl-N-((R)-1-((R)-2,2-dichlorocyclopropyl)ethyl)-1^5-(2-methylpyrimidin-5-yl)-3,7-dioxo-1^1H-4^2,6-diaza-1(1,7)-indazola-4(2,5)-bicyclo[3.1.0]hexanacyclotridecaphane-4^3-carboxamide], the half-inhibitory concentration (IC50) is under 1000 nM.

In the case of `CC(=O)c1nn2c3c(cc(-c4cnc(C)nc4)cc13)CNCC/C=C/COC[C@@]13C[C@@H](C(=O)Nc4nc(C(F)(F)F)ccc4C)N(C(=O)C2)[C@@H]1C3` [Compound 37, (4^1R,4^3S,4^5S,E)-1^3-acetyl-N-(3-methyl-6-(trifluoromethyl)pyridin-2-yl)-1^5-(2-methylpyrimidin-5-yl)-3-oxo-1^1H-6-oxa-4^2,12-diaza-1(1,7)-indazola-4(2,5)-bicyclo[3.1.0]hexanacyclotridecaphan-8-ene-4^3-carboxamide], the IC50 is under 1000 nM.

Take `CC(=O)c1nn2c3c(cc(NCC(C)C)cc13)CCCCCCC(=O)NC[C@@]13C[C@@H](C(=O)Nc4nc(C(F)(F)F)ccc4C)N(C(=O)C2)[C@@H]1C3` [Compound 24, (4^1R,4^3S,4^5R)-1^3-acetyl-15-(isobutylamino)-N-(3-methyl-6-(trifluoromethyl)pyridin-2-yl)-3,7-dioxo-1^1H-4^2,6-diaza-1(1,7)-indazola-4(2,5)-bicyclo[3.1.0]hexanacyclotridecaphane-4^3-carboxamide]: the IC50 is under 1000 nM.

Turning to `CC(=O)c1nn(CC(=O)N2[C@H]3C[C@]4(C[C@@H]24)Cn2cc(nn2)COCc2ccc(Br)nc2NC3=O)c2cnccc12` [Compound 48, (31R,33S,35R,Z)-32-(2-(3-acetyl-1H-pyrazolo[3,4-c]pyridin-1-yl)acetyl)-66-bromo-11H-8-oxa-32,5-diaza-6(2,3)-pyridina-1(1,4)-triazola-3(5,3)-bicyclo[3.1,0]hexanacyclononaphan-4-one], the IC50 was under 1000 nM.

For `CC(=O)c1nn2c3c(cc(Oc4ncc(C)cn4)cc13)CCCCCC(=O)NC[C@@]13C[C@@H](C(=O)Nc4nc(C(F)(F)F)ccc4C)N(C(=O)C2)[C@@H]1C3` [Compound 7, (4^1R,4^3S,4^5R)-1^3-acetyl-N-(3-methyl-6-(trifluoromethyl)pyridin-2-yl)-1^5-((5-methylpyrimidin-2-yl)oxy)-3,7-dioxo-1^1H-4^2,6-diaza-1(1,7)-indazola-4(2,5)-bicyclo[3.1.0]hexanacyclododecaphane-4^3-carboxamide], the IC50 was under 1000 nM.
